# According to patent US9427415B2, “Methods and compositions for modifying sensorial perception” (The Procter & Gamble Company, priority 2014, dated 2016):
# Read-outs that look alike come from different tables or passages of the source.
# How the values were obtained:
# TRPA1V1 = assay: Intracellular calcium (Fluo-4, FLIPR) activation of TRPA1V1 cells (co-expressing TRPA1 and TRPV1) by GRAS compounds; format: cell-based, human;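 further: HEK293 cells co-expressing TRPA1 and TRPV1, fluorescence read at 488/514 nm after baseline subtraction, recorded every 2 s over 10 min, ionomycin 10 µM and buffer as controls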
# Description: TRPV1, TRPA1, TRPA1V1 and pcDNA3 cells were grown in 15 mL growth medium [high glucose DMEM (Dulbecco's modification of Eagle's medium) supplemented with 10% FBS (fetal bovine serum), 100 μg/mL penicillin/streptomycin, 100 μg/mL G418] in a 75 cm^2 flask for 3 days in a mammalian cell culture incubator at 33° C. and 5% CO2. TRP Cells were detached with 8 mL of PBS (without calcium or magnesium); for pcDNA3 cells, trypsin was used for releasing the cells. The detached cells were spun at low speed (800-900 rpm for 3 min) to pellet the cells. […] The cells were washed once with 45 mL assay buffer (1×HBSS, 20 mM HEPES) by low speed centrifugation (800-900 rpm for 3 min) and resuspended in 11 mL of the assay buffer in a reagent reservoir. […] The plates were set at room temperature for 30 min. The plates were read in a FLIPR^TETRA instrument (Molecular Devices, Sunnyvale, Calif.) at λex 488 nm and λem 514 nm to record baseline fluorescence following which 20 μL of test material at 1 mM or 100 μM final concentration for pure compounds in a GRAS library or 0.004% for extracts. For agonists, capsaicin 350 nM and AITC at 30 μM; and for controls, ionomycin 10 μM and buffer alone) was added to each well using the dispenser provided in the FLIPR. The data point was recorded every 2 seconds for a total of 10 min.
# Average value for activation from three independent assay plates are presented as % of agonist value (AITC, 30 μM for TRPA1 and capsaicin, 350 nM for TRPV1. For TRPA1V1, we used AITC, 30 μM or capsaicin, 350 nM depending on if the compound is an A1 agonist or a V1 agonist. For compounds that activated both A1 and V1, we used AITC for normalization). Variation among triplicates was within 10% of each other. Assayed at 1 mM for pure compounds and 0.004% for extracts.
# human TRPV1 = molecular target: T1, human TRPV1 (Homo sapiens, UniProt Q8NER1, M315I/T336M); assay: Intracellular calcium (Fluo-4, FLIPR) activation of TRPV1 cells by GRAS compounds; format: cell-based; details: relative to capsaicin 350 nM; for activation at 1000 µM / activation at 100 µM: read-out: V1 activation, % of agonist value;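 on all read-outs here: TRPV1-expressing cells, FLIPR fluorescence at 488/514 nm with baseline subtracted, sampled every 2 s for 10 min after adding compound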
# T1 construct: expressed in transfected cells; pcDNA3 control cells
# human TRPA1 = molecular target: T2, human TRPA1 (Homo sapiens, UniProt O75762, K186N/R3C/R58T); assay: Intracellular calcium (Fluo-4, FLIPR) activation of TRPA1 cells by GRAS compounds; format: cell-based; details: relative to AITC 30 μM; for activation at 1000 µM / A1 activation, % of agonist value: 1 mM;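 on all read-outs here: TRPA1-expressing cells, fluorescence read on a FLIPR Tetra (ex 488 nm, em 514 nm) every 2 s for 10 min after compound addition, baseline subtracted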
# T2 construct: expressed in transfected cells; pcDNA3 control cells
# [1] = Table 1(g), 1 mM, relative to capsaicin 350 nM
# [2] = Table 1(a), average of three plates, read-out: A1 activation, % of agonist value
# [3] = Table 1(a), 1 mM, relative to AITC 30 μM, average of three plates
# [4] = Table 1(a), 1 mM, average of three plates
# [5] = Table 1(h), 100 μM (marked *), relative to capsaicin 350 nM
# [6] = Table 1(h), 1 mM, relative to capsaicin 350 nM
# [7] = Table 1(f), 1 mM, relative to capsaicin 350 nM
# [8] = Table 1(c), read-out: A1 activation, % of agonist value
# [9] = Table 1(c), 1 mM, relative to AITC 30 μM
# [10] = Table 1(d), read-out: A1 activation, % of agonist value
# [11] = Table 1(d), 1 mM, relative to AITC 30 μM
# [12] = Table 1(e), read-out: A1 activation, % of agonist value
# [13] = Table 1(e), 1 mM, relative to AITC 30 μM
# T2 sequence (O75762 whole entry R3C/R58T/K186N): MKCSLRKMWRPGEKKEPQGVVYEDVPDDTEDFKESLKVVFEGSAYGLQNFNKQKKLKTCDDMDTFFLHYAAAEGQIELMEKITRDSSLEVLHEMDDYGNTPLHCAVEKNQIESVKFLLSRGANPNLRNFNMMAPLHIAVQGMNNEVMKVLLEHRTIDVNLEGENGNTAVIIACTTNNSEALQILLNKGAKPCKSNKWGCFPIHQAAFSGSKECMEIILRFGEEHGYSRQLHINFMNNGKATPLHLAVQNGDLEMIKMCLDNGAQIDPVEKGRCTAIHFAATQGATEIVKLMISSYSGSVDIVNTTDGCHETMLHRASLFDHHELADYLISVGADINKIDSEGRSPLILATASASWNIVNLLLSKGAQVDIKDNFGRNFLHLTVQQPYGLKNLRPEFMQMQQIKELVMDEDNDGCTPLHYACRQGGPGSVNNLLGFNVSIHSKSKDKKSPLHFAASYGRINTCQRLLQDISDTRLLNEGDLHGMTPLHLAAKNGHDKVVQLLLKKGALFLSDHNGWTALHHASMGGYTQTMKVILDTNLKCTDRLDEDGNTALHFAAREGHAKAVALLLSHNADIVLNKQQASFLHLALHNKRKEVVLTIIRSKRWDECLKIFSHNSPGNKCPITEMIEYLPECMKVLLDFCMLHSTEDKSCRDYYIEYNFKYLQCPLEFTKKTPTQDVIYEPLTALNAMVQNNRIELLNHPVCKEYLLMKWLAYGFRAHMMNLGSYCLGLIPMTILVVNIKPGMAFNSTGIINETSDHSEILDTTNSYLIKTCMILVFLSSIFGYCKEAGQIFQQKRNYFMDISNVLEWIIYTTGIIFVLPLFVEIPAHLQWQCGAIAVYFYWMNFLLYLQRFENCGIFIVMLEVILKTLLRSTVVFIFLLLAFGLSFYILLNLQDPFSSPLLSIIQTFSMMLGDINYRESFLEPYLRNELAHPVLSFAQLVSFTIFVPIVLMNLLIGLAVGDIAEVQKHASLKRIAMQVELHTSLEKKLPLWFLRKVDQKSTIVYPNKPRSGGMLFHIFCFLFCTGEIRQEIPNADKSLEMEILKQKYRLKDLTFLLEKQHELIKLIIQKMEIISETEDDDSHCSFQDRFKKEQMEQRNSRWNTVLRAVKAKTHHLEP
# T1 sequence (Q8NER1 whole entry M315I/T336M): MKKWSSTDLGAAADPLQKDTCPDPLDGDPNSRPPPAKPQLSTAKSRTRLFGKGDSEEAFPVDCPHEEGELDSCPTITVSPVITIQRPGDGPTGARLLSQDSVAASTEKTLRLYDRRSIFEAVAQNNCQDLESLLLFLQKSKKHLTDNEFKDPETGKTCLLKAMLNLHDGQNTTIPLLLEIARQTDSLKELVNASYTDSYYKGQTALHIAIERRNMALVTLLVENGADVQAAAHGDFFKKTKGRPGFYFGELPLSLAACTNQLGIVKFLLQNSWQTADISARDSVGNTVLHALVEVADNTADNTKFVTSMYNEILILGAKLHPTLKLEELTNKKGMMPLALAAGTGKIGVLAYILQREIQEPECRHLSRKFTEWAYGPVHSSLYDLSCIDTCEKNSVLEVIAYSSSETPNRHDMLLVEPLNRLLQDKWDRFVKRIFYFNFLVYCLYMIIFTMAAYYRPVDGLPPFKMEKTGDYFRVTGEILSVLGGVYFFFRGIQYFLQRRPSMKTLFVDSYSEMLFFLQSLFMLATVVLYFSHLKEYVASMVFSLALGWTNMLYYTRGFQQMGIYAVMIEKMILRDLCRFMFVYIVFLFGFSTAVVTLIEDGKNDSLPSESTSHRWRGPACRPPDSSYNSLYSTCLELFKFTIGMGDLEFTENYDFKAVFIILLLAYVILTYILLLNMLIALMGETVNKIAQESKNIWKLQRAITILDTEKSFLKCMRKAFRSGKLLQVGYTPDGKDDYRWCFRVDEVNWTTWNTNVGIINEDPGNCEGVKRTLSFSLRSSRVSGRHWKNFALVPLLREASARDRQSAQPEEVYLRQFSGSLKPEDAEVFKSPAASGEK
compound,measurement,setting,value
"CC1SCCS1 [1,3-Dithiolane, 2-methyl-]","A1V1 activation, % of agonist value",TRPA1V1; [1],119.9%
same,activation at 1000 µM,"human TRPV1; Table 1(g), 1 mM",66.2%
C=CC(=O)CCCCC [1-Octen-3-one],activation at 1000 µM,human TRPA1; [2],118%
same,"A1V1 activation, % of agonist value",TRPA1V1; [3],98.9%
same,activation at 1000 µM,human TRPV1; [4],63.2%
"CC(=O)C(=O)c1ccccc1 [1-Phenyl-1,2-propanedione]",activation at 1000 µM,human TRPA1; [2],98.6%
same,activation at 100 µM,"human TRPA1; Table 1(d), 100 μM (*), read-out: A1 activation, % of agonist value",100%
same,"A1V1 activation, % of agonist value",TRPA1V1; [3],105.5%
same,"A1V1 activation, % of agonist value","TRPA1V1; Table 1(d), 100 μM (*), relative to AITC 30 μM",71.4%
same,activation at 1000 µM,human TRPV1; [4],66.6%
"C=CCSCC=C [1-Propene, 3,3′-thiobis-]","A1V1 activation, % of agonist value",TRPA1V1; [1],108.4%
same,activation at 1000 µM,"human TRPV1; Table 1(g), 1 mM",47.3%
"Cc1ccc(C)c(O)c1C [2,3,6-Trimethylphenol]",activation at 1000 µM,human TRPA1; [2],90%
same,"A1V1 activation, % of agonist value",TRPA1V1; [3],91.4%
same,activation at 1000 µM,human TRPV1; [4],74.8%
"CCCCCCCC=CC=CC=O [2,4-Dodecadienal]","A1V1 activation, % of agonist value",TRPA1V1; [5],53.5%
same,activation at 100 µM,"human TRPV1; Table 1(h), 100 μM (marked *)",199%
"Cc1ccc(C)c(O)c1 [2,5-Dimethylphenol]","A1V1 activation, % of agonist value",TRPA1V1; [6],34.2%
same,activation at 1000 µM,"human TRPV1; Table 1(h), 1 mM",81.2%
"Cc1cccc(C)c1O [2,6-Dimethylphenol]","A1V1 activation, % of agonist value",TRPA1V1; [6],45.8%
same,activation at 1000 µM,"human TRPV1; Table 1(h), 1 mM",72.1%
"O=CC(=Cc1ccco1)c1ccccc1 [2-Furanacrolein, alpha-phenyl-]","A1V1 activation, % of agonist value",TRPA1V1; [7],66.2%
same,"V1 activation, % of agonist value","human TRPV1; Table 1(f), 1 mM",55.7%
CC(C)c1ccccc1O [2-Isopropylphenol],"A1V1 activation, % of agonist value",TRPA1V1; [6],83.5%
same,activation at 1000 µM,"human TRPV1; Table 1(h), 1 mM",108%
Cc1ccc(C(C)CC=O)o1 (stereo not drawn) [3-(5-Methyl-2-furyl)butanal],"A1V1 activation, % of agonist value",TRPA1V1; [7],91.6%
same,activation at 1000 µM,"human TRPV1; Table 1(f), 1 mM",103%
"CC(=O)c1cc(C)sc1C [3-Acetyl-2,5-dimethylthiophene]","A1V1 activation, % of agonist value",TRPA1V1; [7],84.9%
same,activation at 1000 µM,"human TRPV1; Table 1(f), 1 mM",95.1%
CCCCCCCC1CC(C)OC1=O (stereo not drawn) [3-Heptyldihydro-5-methylfuran-2(3H)-one],"A1V1 activation, % of agonist value",TRPA1V1; [7],40.5%
same,activation at 1000 µM,"human TRPV1; Table 1(f), 1 mM",45.5%
CCC(C)(O)CCc1ccccc1 (stereo not drawn) [3-Methyl-1-phenyl-3-pentanol],"A1V1 activation, % of agonist value",TRPA1V1; [6],70.5%
same,activation at 1000 µM,"human TRPV1; Table 1(h), 1 mM",100%
CC(=O)CCc1ccc(OC(C)=O)cc1 [4-(p-Acetoxyphenyl)-2-butanone],"A1V1 activation, % of agonist value",TRPA1V1; [1],91.8%
same,activation at 1000 µM,"human TRPV1; Table 1(g), 1 mM",58.9%
CCCCCCC1CCC(=O)O1 (stereo not drawn) [4-Decanolide],"A1V1 activation, % of agonist value",TRPA1V1; [7],35.8%
same,activation at 1000 µM,"human TRPV1; Table 1(f), 1 mM",40.9%
CCc1ccc(C=O)cc1 [4-Ethylbenzaldehyde],"A1V1 activation, % of agonist value",TRPA1V1; [1],120.3%
same,activation at 1000 µM,"human TRPV1; Table 1(g), 1 mM",56.3%
CC(=O)c1ccc(C)cc1 [4′-Methylacetophenone],"A1V1 activation, % of agonist value",TRPA1V1; [1],136.6%
same,activation at 1000 µM,"human TRPV1; Table 1(g), 1 mM",55%
Cc1ccc(C=O)s1 [5-Methyl-2-thiophenecarboxaldehyde],"A1V1 activation, % of agonist value",TRPA1V1; [1],111.4%
same,activation at 1000 µM,"human TRPV1; Table 1(g), 1 mM",58.9%
CCCCCc1cccc(=O)o1 [6-Pentyl-alpha-pyrone],"A1V1 activation, % of agonist value",TRPA1V1; [1],95.2%
same,"V1 activation, % of agonist value","human TRPV1; Table 1(g), 1 mM",66.1%
CC1(C)[C@@H](O[C@H]2O[C@H](C(=O)O)[C@@H](O)[C@H](O)[C@H]2O[C@@H]2O[C@H](C(=O)O)[C@@H](O)[C@H](O)[C@H]2O)CC[C@]2(C)[C@H]3C(=O)C=C4[C@@H]5C[C@@](C)(C(=O)O)CC[C@]5(C)CC[C@@]4(C)[C@]3(C)CC[C@@H]12 [18beta-Glycyrrhizinic acid],"A1V1 activation, % of agonist value",TRPA1V1; [1],162.7%
same,"V1 activation, % of agonist value","human TRPV1; Table 1(g), 1 mM",100.9%
CC(C)[C@@H]1CC[C@@H](C)C[C@@H]1O [(+)-Neomenthol],"A1V1 activation, % of agonist value",TRPA1V1; [6],44.8%
same,"V1 activation, % of agonist value","human TRPV1; Table 1(h), 1 mM",68.8%
"CC(=O)S [Acetic acid, thio-]","A1V1 activation, % of agonist value",TRPA1V1; [1],115.1%
same,"V1 activation, % of agonist value","human TRPV1; Table 1(g), 1 mM",61.9%
O=C(O)CCCCC(=O)O [Adipic acid],"A1V1 activation, % of agonist value",TRPA1V1; [1],70.4%
same,activation at 1000 µM,"human TRPV1; Table 1(g), 1 mM",47.6%
COc1ccccc1 [Anisole],"A1V1 activation, % of agonist value",TRPA1V1; [5],34.7%
same,activation at 100 µM,"human TRPV1; Table 1(h), 100 μM (marked *)",48.3%
CCCCCCCCCC1CCCC(=O)O1 (stereo not drawn) [Delta-tetradecalactone],"A1V1 activation, % of agonist value",TRPA1V1; [1],61.7%
same,"V1 activation, % of agonist value","human TRPV1; Table 1(g), 1 mM",33.0%
CCCCC1CCCCC(=O)O1 (stereo not drawn) [Epsilon-Decalactone],"A1V1 activation, % of agonist value",TRPA1V1; [7],52.9%
same,"V1 activation, % of agonist value","human TRPV1; Table 1(f), 1 mM",47.7%
CSCc1ccco1 [Furfuryl methyl sulfide],"A1V1 activation, % of agonist value",TRPA1V1; [1],111.6%
same,activation at 1000 µM,"human TRPV1; Table 1(g), 1 mM",50.1%
"O=C([O-])[C@H](O)[C@@H](O)[C@H](O)[C@H](O)CO.[K+] [Gluconic acid, monopotassium salt]","A1V1 activation, % of agonist value",TRPA1V1; [6],14.0%
same,activation at 1000 µM,"human TRPV1; Table 1(h), 1 mM",33%
c1ccc2[nH]ccc2c1 [Indole],"A1V1 activation, % of agonist value",TRPA1V1; [7],42.9%
same,activation at 1000 µM,"human TRPV1; Table 1(f), 1 mM",53.3%
CC(=O)CC(=O)OCC(C)C [Isobutyle acetoacetate],"A1V1 activation, % of agonist value",TRPA1V1; [1],81.9%
same,"V1 activation, % of agonist value","human TRPV1; Table 1(g), 1 mM",54.1%
O=C(O)[C@H](O)[C@@H](O)C(=O)O [L-(+)-Tartaric acid],"A1V1 activation, % of agonist value",TRPA1V1; [5],38.4%
same,"V1 activation, % of agonist value","human TRPV1; Table 1(h), 100 μM (marked *)",60.4%
CCCCCCCC(=O)O [Octanoic acid],"A1V1 activation, % of agonist value",TRPA1V1; [7],83.4%
same,activation at 1000 µM,"human TRPV1; Table 1(f), 1 mM",73.7%
O=C(/C=C/C=C/c1ccc2c(c1)OCO2)N1CCCCC1 [Piperine],"A1V1 activation, % of agonist value",TRPA1V1; [6],57.1%
same,activation at 1000 µM,"human TRPV1; Table 1(h), 1 mM",120%
O=C(O)c1ccc(O)c(O)c1 [Protocatechuic acid],"A1V1 activation, % of agonist value",TRPA1V1; [1],121.05%
same,activation at 1000 µM,"human TRPV1; Table 1(g), 1 mM",60.6%
O=C(O)C(O)C(O)C(=O)O (stereo not drawn) [Tartaric acid],"A1V1 activation, % of agonist value",TRPA1V1; [6],29.6%
same,activation at 1000 µM,"human TRPV1; Table 1(h), 1 mM",55.8%
CC(C=O)=Cc1ccccc1 [alpha-Methylcinnamaldehyde],"A1V1 activation, % of agonist value",TRPA1V1; [1],104.4%
same,activation at 1000 µM,"human TRPV1; Table 1(g), 1 mM",54.6%
CC/C=C\CCCCC=O [cis-6-Nonenal],activation at 1000 µM,human TRPA1; [8],108%
same,"A1V1 activation, % of agonist value",TRPA1V1; [9],93%
C=CC(O)CCCCCCC (stereo not drawn) [dec-1-en-3-ol],activation at 1000 µM,human TRPA1; [10],90%
same,"A1V1 activation, % of agonist value",TRPA1V1; [11],69.5%
Cc1ccc(C=O)c(O)c1 [m-Homosalicylaldehyde],"A1V1 activation, % of agonist value",TRPA1V1; [1],140.7%
same,activation at 1000 µM,"human TRPV1; Table 1(g), 1 mM",56.5%
Cc1ccc(O)cc1 [p-Cresol],activation at 1000 µM,human TRPA1; [10],61%
same,"A1V1 activation, % of agonist value",TRPA1V1; [11],38.52%
CC(=O)c1ccc(O)cc1 [p-Hydroxyacetophenone],activation at 1000 µM,human TRPA1; [8],52.8%
same,"A1V1 activation, % of agonist value",TRPA1V1; [9],49.38%
C=C(C)C1CCC(C)C(=O)C1 (stereo not drawn) [p-Menth-8-en-2-one],activation at 1000 µM,human TRPA1; [12],39.9%
same,"A1V1 activation, % of agonist value",TRPA1V1; [13],59.5%
CCCC(=O)OCc1ccc(OC)cc1 [p-Methoxybenzyl butyrate],activation at 1000 µM,human TRPA1; [12],34%
same,"A1V1 activation, % of agonist value",TRPA1V1; [13],58.97%
CCC/C=C/COC(=O)CCC [trans-2-Hexenyl butyrate],activation at 1000 µM,human TRPA1; [10],48.9%
same,"A1V1 activation, % of agonist value",TRPA1V1; [11],20%
CCCCC/C=C/C=O [trans-2-Octanal],"A1 activation, % of agonist value",human TRPA1; Table 1(c),112%
same,"A1V1 activation, % of agonist value",TRPA1V1; [9],115%
Bisabolene,"A1 activation, % of agonist value",human TRPA1; Table 1(d),77%
same,"A1V1 activation, % of agonist value",TRPA1V1; [11],46.2%
"L-Ascorbic acid, calcium salt (2:1)","A1 activation, % of agonist value",human TRPA1; Table 1(c),88.00%
same,"A1V1 activation, % of agonist value",TRPA1V1; [9],93.20%
Myrtenal,"A1 activation, % of agonist value",human TRPA1; Table 1(c),95.8%
same,"A1V1 activation, % of agonist value",TRPA1V1; [9],111.3%
Tolylaldehyde glyceryl acetyl,"A1V1 activation, % of agonist value",TRPA1V1; [1],110.7%
same,"V1 activation, % of agonist value","human TRPV1; Table 1(g), 1 mM",53.0%
